Experimental data as given in US11028138B2, “Compositions and methods for using actin-based peptides to modulate cellular bioactivity and cellular susceptibility to intracellular pathogens” (priority 2016, dated 2021).

Experiments:
HIV-1 [1] = settings: pretreatment; cited from earlier work
HIV-1 [2] = settings: dosages that did not affect CD4 T cell activation or induce cytotoxicity; cited from earlier work
Influenza A virus (IAV) [3] = settings: vs solvent-treated control mice; cited from earlier work
Influenza A virus (IAV) [4] = settings: A549 cells; read-out: IC50, reduction of viral replication; cited from earlier work
[5] = tested on: Human T lymphoblast cell A3.01; experiment: N10-mediated cell killing, Propidium iodide and FITC-Annexin V staining, flow cytometry; assay type: cell-based; settings: 10 uM; A3.01 cells
Description: FIG. 8: Human T lymphoblast cell A3.01 was treated with N10 (10 uM). N10-mediated cell killing was monitored by staining of dead cells with Propidium iodide and FITC-labelled Annexin V. Cells were analyzed by flow cytometry.
N10-mediated cell killing was monitored by staining of dead cells with Propidium iodide and FITC-labelled Annexin V. Cells were analyzed by flow cytometry.
• 5) Culture human A3.01 cells at 5×10^5 cells/ml • 6) Add peptide N10 to the cell to a final concentration of 10 uM • 7) Continue to culture cell at 37° C., maintain cell density below 1×10^6 cells/ml 8) Take out 1-2×10^5 cells, put on ice, add P.I., and FITC—Annexin V as recommended by the reagent manufacturer for dead/apoptotic cell staining. • 9) Analyzed the staining by flow cytometer.

HIV [6] = experiment: HIV DNA synthesis, 2-LTR circles and DNA integration in CEM-SS T cells and blood resting CD4 T cells; assay type: cell-based; settings: for HIV DNA synthesis / HIV nuclear migration (2-LTR circles): peptide during 2 h infection; for HIV DNA integration: resting CD4 T cells, no T cell activation
Description: (§1) FIG. 6: Peptide N7 and N9 enhance HIV DNA synthesis, nuclear migration, and integration. (A) CEM-SS T cells were treated with N7 during HV infection for 2 hours, washed, and then analyzed for viral DNA synthesis and 2-LTR circles, a marker for HIV nuclear migration. (B) Blood resting CD4 T cells were similar infected, washed, and cultured without T cell activation. Viral DNA synthesis and DNA integration were analyzed.
as §1, with “CEM-SS” for “FIG. 6: Peptide N7 and N9 enhance HIV DNA synthesis, nuclear migration, and integration. (A) CEM-SS”, “migration.” for “migration. (B)”

HIV [7] = experiment: HIV infection of resting CD4 T cells, viral p24 release; assay type: cell-based
Description: FIG. 7: Peptide N9 promotes HIV infection of resting CD4 T cells. Resting CD4 T cells were treated with N9, and then infected with HIV for 2 hours. Following infection, cells were washed, and culture in the absence of T cell activation and N9. Viral p24 release was measured. As controls, cells were culture with the addition of IL-7 (daily addition), or with a scrambled peptide, or only in the culture medium.
The ability of N9 to stimulate HIV infection of blood resting CD4 T cells was also tested. Resting CD4 T cells are relatively resistant to HIV infection. The lack of activity in the cortical actin limits viral early steps in the infection of resting T cells (Yoder et aI., 2008).

HIV-1 [8] = settings: Rev-CEM-GFP; 2 h infection; 2 days post infection; viable (low PI) cells; HIV alone 0.79% (N7 experiment), 1.95% (N9 experiment)
Description: (A) The HIV Rev-dependent indicator cell, Rev-CEM-GFP, was not infected (+Cell) or infected with HIV-1 (+HIV), or pre-treated with peptide N7, and then infected with HIV-1 (N7+HIV). Following infection for 2 hours, cells were washed to remove the virus and the peptide. Viral replication was measured at 2 days post infection by flow cytometry. […] PI, propidium iodide, was added before flow cytometry for cytotoxicity control. GFP+ cells were counted only when the cells are viable (low PI staining). (B) Effects of peptide N9 were similarly measured.
The HIV Rev-dependent indicator cell, Rev-CEM-GFP, was not infected (+Cell) or infected with HIV-1 (+HIV), or pre-treated with peptide N7, and then infected with HIV-1 (N7+HIV). Following infection for 2 hours, cells were washed to remove the virus and the peptide. Viral replication was measured at 2 days post infection by flow cytometry.
PI, propidium iodide, was added before flow cytometry for cytotoxicity control. GFP+ cells were counted only when the cells are viable (low PI staining).

actin = experiment: Actin polymerization and depolymerization by FITC-phalloidin staining in resting CD4 T cells; assay type: cell-based
Description: (§2) FIG. 5: Peptide N7 and N9 modulate cell signal transduction and chemotactic cofilin and actin activity. (A) Resting memory CD4 T cells were treated with N7 for a time course, cofilin phosphorylation was measured by Western Blot. Total cofilin and GAPDH was also measured for loading control. (B) Resting CD4 T cells were treated with N9, and actin polmerization and depolymerization were measured by FITC-phalloidin staining.
(§3) Resting memory CD4 T cells were treated with N7 for a time course, and cofilin phosphorylation was measured by Western Blot. Total cofilin and GAPDH was also measured for loading control (FIG. 5A). Resting CD4 T cells were treated with N9, and actin polmerization and depolymerization were measured by FITC-phalloidin staining (FIG. 5B).

surface CXCR4 receptors = experiment: Surface receptor staining and flow cytometry after peptide stimulation (CXCR4); assay type: cell-based, human; settings: T cells exposed to peptide, 10 uM, 5 to 120 min
Description: (§4) FIG. 4: Up-regulation of cell surface receptors by N7. CEM-SS T cells or blood resting CD4 T cells were stimulated with peptide N7 for a time course. Effects on surface CD4, CXCR4 density were measured by anti-CD4 or anti-CXCR4, followed by flow cytometry.
(§5) • 1) Culture human CEM-SS T cells at 5×10^5 cells/ml • 2) Add peptide N7 to the cell to a final concentration of 10 uM at various times from 5 min to 120 min (e. g. 5, 10, 15, 30, 45, 60, 120 min). • 3) Take out 1-2×10^5 cells, put on ice, perform routine surface staining using FITC-, PE- or PE-cy5-labelled specific antibodies against cell receptors as recommended by the reagent manufacturer for cell surface staining. • 4) Analyzed the staining by flow cytometer.

surface CD4 receptor = experiment: Surface receptor staining and flow cytometry after peptide stimulation (CD4); assay type: cell-based, human; settings: T cells exposed to peptide, 10 uM, 5 to 120 min
Description: as §4, §5

cofilin = experiment: Cofilin phosphorylation by Western Blot in resting memory CD4 T cells; assay type: cell-based; settings: time course
Description: as §2, §3

## C=C1[C@@H](C)[C@H]2[C@H](Cc3ccccc3)NC(=O)[C@]23[C@H](OC(C)=O)/C=C/[C@@](C)(O)C(=O)[C@@H](C)C/C=C/[C@H]3[C@@H]1O [CCD, cytochalasin D]
HIV-1 [1]
  Reduction of nuclear accumulation of late RT products: 25 fold

## O=C1CSC(c2cccc(Br)c2)N1c1cc(Cl)ccc1O (stereo not shown) [CK-548]
HIV-1 [2]
  HIV-1 replication: dramatically reduced

## CCN(CC)CCCC(C)Nc1nc(C)cc(Nc2ccc3nc(C)cc(N)c3c2)n1 (stereo not shown) [NSC23766]
Influenza A virus (IAV) [3]
  Body weights: increased
  Survivability: higher
  Titer of IAV in lung tissue: reduce titer
Influenza A virus (IAV) [4]
  IC50: 22 µM

## RRRRRRRR(G/A)0-20AGRDLTDYLMKILTERGYSF [Peptide N10]
[5]
  Cell killing: killing of T cells

## RRRRRRRR(G/A)0-20HTVRIYEGYALRHAILRLDL [Peptide N9]
HIV [6]
  HIV DNA synthesis: enhance
  HIV nuclear migration (2-LTR circles): enhance
  HIV DNA integration: enhance
HIV [7]; early time
  Stimulation of viral infection compared with IL-7 (administered daily): more potent
HIV [7]; single-dosage treatment prior to infection, no T cell activation or cytokine stimulation
  HIV infection of resting T cells (p24 release): drastically stimulated
HIV-1 [8]
  HIV infection, percentage of GFP+ cells: 14.07%
actin
  Actin polymerization/depolymerization: modulate

## RRRRRRRR(G/A)0-20QIMFETENTPAMYVAIQAVL [Peptide N7]
HIV [6]
  HIV DNA synthesis: enhance
  HIV nuclear migration (2-LTR circles): enhance
  HIV DNA integration: enhance
HIV-1 [8]
  HIV infection, percentage of GFP+ cells: 15.5%
Surface CXCR4 receptors
  Surface CXCR4 receptor density: drastically up-regulate
actin
  Actin polymerization/depolymerization: actin depolymerization
Surface CD4 receptor
  Surface CD4 receptor density: moderate up-regulation
cofilin
  Cofilin activation: briefly triggers cofilin activation
